Bridge positions count the residues as written; N and C are the ends. Square brackets hold non-standard residues; d marks the D form. Peptide text beside a SMILES is read from it. * marks the point of attachment. 2Nal = N[C@@H](Cc1ccc2ccccc2c1)C(=O)O; Benzoyl(4-F) = O=C(c1ccc(F)cc1)*; Cit = NC(=O)NCCC[C@H](N)C(=O)O
Assays:
[1] = system: PC3-CXCR4.5 cells; experiment: MIP3α secretion by CXCR4-overexpressing PC3-CXCR4.5 cells (ELISA); type: cell-based; conditions: transfection with CXCR4-specific or control siRNA
Description: (§1) A PC3 prostate cell line that overexpresses high levels of CXCR4 was generated. […] FIG. 1A presents FACS histograms of PC3 cells (left panel) and a single cell clone with stable overexpression of CXCR4, GFP and luc genes (PC3-CXCR4.5, right panel) that were stained for the control (IgG2a-PE, full histograms) and CXCR4 (IgG2a-12G5, empty histograms) antibodies.
(§2) In this example, regulation of the chemokine MIP3α (macrophage inflammatory protein 3α) was examined. […] In FIG. 1B, PC3 (left panel) and PC3-CXCR4.5 (right panel) cells were stimulated with the indicated concentrations of CXCL12 for 48 hours and MIP3α secretion was assessed by ELISA. The results represent the average of triplicates±STDEV.
(§3) The effects of the CXCR4 antagonist AMD3100 and of 4F-benzoyl-TN14003 (4FB-TN14003), hitherto known as a CXCR4 antagonist, on MIP3α secretion were further tested. […] In FIG. 10, CXCR4 signaling in PC3 (left panel) and PC3-CXCR4.5 (right panel) cells was inhibited with anti-CXCL12 antibodies (αCXCL12) and Pertussis toxin (PTX) treatments alone or in combination with CXCL12, as indicated. Secretion of MIP3α was assessed by ELISA. The results represent the average of triplicates±STDEV.
Spontaneous secretion of MIP3α is CXCL12 and PTX independent in these cells.

[2] = system: Streptococcus A; experiment: Survival of mice upon bacterial infection in a chemotherapy model; type: in vivo; conditions: CPM 250 mg/kg total; Streptococcus A 10^8/mouse s.c. day 0; 4F-benzoyl-TN14003 5 mg/kg s.c., G-CSF 5 μg/mouse
Method: Mice received a total dose of 250 mg/kg CPM by two 0.25 ml intra-peritoneal injections scheduled at day −5 (150 mg/kg) and day −2 (100 mg/kg). Mice were subcutaneously treated with 0.2 ml of 4F-benzoyl-TN14003 (5 mg/kg), alone or in combination with G-CSF (5 μg/mouse), at the time points indicated in FIG. 15A. On day 0, Streptococcus A were subcutaneously injected (10^8/mouse) and the mice were then treated as detailed in FIG. 15A.

[3] = system: GR-1 positive cells, MNC and progenitors; experiment: Cell counts in a bone marrow transplantation model; type: in vivo, mice; conditions: 900 Rad irradiation, BM transplant 5×10^6/mouse; 5 mg/kg s.c.
Description: Mice received lethal total body irradiations of 900 Rad and were subsequently transplanted with BM cells from donor healthy mice (5×10^6/mouse). […] Flow cytometery was used to assess the number of cells in the blood and bone marrow (BM), and distinguish between the different populations. Cells were gated according to forward scatter and side scatter to exclude dead cells and to determine granulocytes (GR-1 positive cells) and mononuclear cells (MNC).

[4] = system: proerythroblast cells; experiment: Proerythroblasts in blood, FACS with anti-Ter-119; type: in vivo, C57BL/6 mice; conditions: 5 mg/kg s.c.; 2 hours
Method: To assess the number of cells in blood and BM, and to distinguish between the different populations, FACScan flow cytometer was used. Cells derived from these organs were gated according to forward scatter and side scatter to exclude dead cells and to determine granulocytes, mononuclear cells and activated macrophage populations. The number of each cell population was counted. Cells were also stained in 0.1 ml FACS buffer with fluorescence antibodies directed against Gr-1, CD3, mac-1, F4/80, Nk1.1, B220 and Ter-119 molecules or matched isotype controls (all from eBiosience, San Diego, Calif.) for 30 min and washed with FACS buffer.
C57BL/6 mice were s.c. injected with 5 mg/kg 4F-benzoyl-TN14003. 2 hours later blood was obtained and the number of proerythroblast cells was evaluated by FACS following staining with anti-Ter-119 (FITC). Data are expressed as average±SD of five mice/group.

[5] = system: PC3 cells; experiment: MIP3α secretion by PC3 prostate cells (ELISA); type: cell-based
Description: as §1, §2, §3

[6] = system: hematopoietic stem cells (HSCs); experiment: Hematopoietic stem cell assay: transplantation of mobilized blood cells into lethally irradiated mice, survival; type: in vivo, C57BL/6 mice; conditions: 2 h
Method: C57BL/6 mice, served as donors, were injected with 5 mg/kg of either 4F-benzoyl-TN14003 or AMD3100. 2 h later peripheral blood cells were collected following by ACK lysis and transferred into C57BL/6 recipient mice that were given a lethal dosing of irradiation (900 cGy) 24 h before i.v. injection of cells. A total cell obtained from 900 or 225 microliter of blood was transferred into single recipient mouse in a total volume of 200 μl PBS. Recipient mice transferred with cells obtained from blood of untreated mice or with normal BM cells were served as controls. Survival of mice was monitored for 4 months.
Although mobilization of HPCs may be of use for short-term repopulation in a transplantation setting, HSCs are required for long-term repopulation. To assess the effect of 4F-benzoyl-TN14003 on mobilization of murine HSCs, a transplantation model was used, in which donor C57Bl/6 mice were treated with 4F-benzoyl-TN14003 or AMD3100. After 2 h, blood was collected and cells isolated from an equal volume of blood obtained from each treated group (900 or 225 microliter in different experiments) were transferred for engraftment in lethally irradiated recipient C57Bl/6 mice. Survival of the recipient mice, indicative for long-term repopulating (LTR) activity and presence of HSCs, was monitored.

[7] = system: white-blood-cells (WBC); type: in vivo
[8] = 5 mg/kg s.c. 4F-benzoyl-TN14003 or AMD3100, 2 h, G-CSF 2.5 μg s.c. twice a day for 4 days, combination 18 h after last G-CSF
[9] = peak at 10 mg/kg s.c., 2 hours post-injection

## N=C(N)NCCC[C@H](NC(=O)[C@@H]1CSSC[C@H](NC(=O)[C@H](Cc2ccc3ccccc3c2)NC(=O)[C@H](CCCNC(=N)N)NC(=O)[C@H](CCCNC(=N)N)NC(=O)c2ccc(F)cc2)C(=O)N[C@@H](Cc2ccc(O)cc2)C(=O)N[C@@H](CCCNC(N)=O)C(=O)N[C@@H](CCCCN)C(=O)N[C@H](CCCCN)C(=O)N2CCC[C@H]2C(=O)N[C@@H](Cc2ccc(O)cc2)C(=O)N[C@@H](CCCNC(=N)N)C(=O)N[C@@H](CCCNC(N)=O)C(=O)N1)C(N)=O [4F-benzoyl-TN14003, 4F-benzoly-Arg-Arg-Nal-Cys-Tyr-Cit-Lys-DLys-Pro-Tyr-Arg-Cit-Cys-Arg-NH2] ({Benzoyl(4-F)}-RR[2Nal]CY[Cit]K[dK]PYR[Cit]CR-NH2; disulfide 4-13)
[1]
  CXCR4 dependence of induced MIP3α secretion: CXCR4 dependent
[2]
  survival of mice after Streptococcus A infection: save the mice from death induced by the pathogen
[3]
  GR-1 and MNC cell counts in the BM: stimulate GR-1 (left panel) and MNC (right panel) production in the BM
  GR-1 positive cells in the blood: mobilize GR-1 positive cells and reduce neutropenia
  progenitor cell counts (total, CFU-GM, CFU-M, BFU-E, CFU-GEMM) in the BM: stimulate production of various progenitors in the BM
[4]
  number of proerythroblasts (Ter119) in blood, fold elevation from the control level: 3.2 fold
[5]
  MIP3α secretion: induced in both cell lines MIP3α secretion in an agonist manner
[6]; cells from 225 microliter of blood of donors given 5 mg/kg, day 33 post transplantation
  survival of lethally irradiated recipient mice: 70.6%
[6]; cells from 900 microliter of blood of donors given 5 mg/kg, until day 42 post transplantation
  survival of lethally irradiated recipient mice: one hundred
[7]; 5 mg/kg s.c.
  MNCs in the blood, full return to the baseline level: 4 h
  activated macrophages in the blood, return to the baseline level: 24 h
  activated macrophages in the blood, time of peak: 1 h
  neutrophils in the blood, decrease to the baseline level: 24 h
  neutrophils in the blood, time of peak: 1 to 2 h
[7]; [8]
  Activated macrophages, fold elevation of cell counts from control: 4.2 fold
  MNC, fold elevation of cell counts from control: 2.3 fold
  Neutrophils, fold elevation of cell counts from control: 6.1 fold
[7]; 5 mg/kg s.c., after 30 minutes
  mononuclear cells (MNCs) in the blood, fold elevation from control: 2 fold
[7]; 5 mg/kg s.c., peak after 1 to 2 hours
  number of neutrophils in the blood, fold change from control at peak: > 12 fold
[7]; dose 5 mg/kg s.c., 2 hours post-injection
  number of WBC in blood, fold elevation compared to control mice (peak of dose response): 2.5 fold
[7]; intact mice, 5 mg/kg s.c.
  number of white blood cells within the BM: no changes were observed
[7]; [9]
  MNCs in blood, fold change from control: 3.5 fold
  absolute number of neutrophils in blood, fold change compared to control: ~8 fold
  activated macrophages in blood, fold change from control: 6 fold
[7]; single dose 5 mg/kg s.c.
  total WBC in blood, full return to the baseline level: 24 h
[7]; single dose 5 mg/kg s.c., after 30 minutes
  number of total WBC in blood, fold change from control: 2 fold
[7]; staining CD3, B220, Mac-1
  mobilization of T cells, B cells and monocytes (FACS): had an effect on the mobilization of T cells, B cells and monocytes
[7]; staining Nk1.1
  mobilization of NK cells (FACS): had no effect on the mobilization of NK cells

From US8455450B2, “Methods for obtaining a therapeutically effective amount of hematopoietic precursor cells and long term engraftment thereof” (Biokine Therapeutics Ltd., priority 2006, dated 2013)
